ChEMBL document CHEMBL1153597, “A new synthesis of caged GABA compounds for studying GABAA receptors” (Bioorg Med Chem Lett, 2009)
The source made the active and inactive calls. No cut-off for these calls is given here.

Experiments:
Format in all cases: cell-based
Details in all cases: HEK-293T
[1] = molecular target: T1, Gamma-aminobutyric acid receptor subunit alpha-1 (Homo sapiens) (UniProt P14867); assay: Neurotransmitter activity at GABAA alpha1 receptor expressed in HEK293T cells assessed as release of GABA-induced permeability to chloride ions by photolysis technique
T1 sequence (whole entry): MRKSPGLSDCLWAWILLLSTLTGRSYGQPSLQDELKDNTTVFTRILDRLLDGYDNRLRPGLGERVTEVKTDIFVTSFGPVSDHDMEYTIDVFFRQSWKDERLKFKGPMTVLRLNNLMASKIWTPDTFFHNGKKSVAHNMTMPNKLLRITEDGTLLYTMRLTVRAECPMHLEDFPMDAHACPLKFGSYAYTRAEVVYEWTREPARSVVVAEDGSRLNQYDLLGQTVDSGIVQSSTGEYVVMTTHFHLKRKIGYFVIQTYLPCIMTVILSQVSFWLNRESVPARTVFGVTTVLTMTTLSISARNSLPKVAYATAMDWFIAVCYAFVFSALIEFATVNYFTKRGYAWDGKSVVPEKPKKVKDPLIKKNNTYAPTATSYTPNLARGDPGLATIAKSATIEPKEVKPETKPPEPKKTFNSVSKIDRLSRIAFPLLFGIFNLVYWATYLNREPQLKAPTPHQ

[2] = molecular target: T2, Gamma-aminobutyric acid receptor subunit delta (Homo sapiens) (UniProt O14764); assay: Neurotransmitter activity at GABAA delta receptor expressed in HEK293T cells assessed as release of GABA-induced membrane permeability to chloride ions by photolysis technique
T2 sequence (whole entry): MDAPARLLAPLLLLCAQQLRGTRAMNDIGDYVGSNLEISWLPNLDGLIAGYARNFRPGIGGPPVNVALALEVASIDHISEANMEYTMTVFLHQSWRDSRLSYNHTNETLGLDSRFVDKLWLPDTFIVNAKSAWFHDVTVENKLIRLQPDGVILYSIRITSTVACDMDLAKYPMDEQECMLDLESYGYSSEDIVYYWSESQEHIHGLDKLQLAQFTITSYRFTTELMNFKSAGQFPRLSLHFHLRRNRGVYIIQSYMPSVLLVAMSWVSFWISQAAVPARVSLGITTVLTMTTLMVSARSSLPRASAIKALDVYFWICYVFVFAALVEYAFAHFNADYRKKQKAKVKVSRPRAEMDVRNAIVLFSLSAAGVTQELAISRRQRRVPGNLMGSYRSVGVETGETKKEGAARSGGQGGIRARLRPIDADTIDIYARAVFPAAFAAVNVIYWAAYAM

[3] = molecular target: T3, Gamma-aminobutyric acid receptor subunit beta-2 (Homo sapiens) (UniProt P47870); assay: Neurotransmitter activity at GABAA beta2 receptor expressed in HEK293T cells assessed as release of GABA-induced permeability to chloride ions by photolysis technique
T3 sequence (whole entry): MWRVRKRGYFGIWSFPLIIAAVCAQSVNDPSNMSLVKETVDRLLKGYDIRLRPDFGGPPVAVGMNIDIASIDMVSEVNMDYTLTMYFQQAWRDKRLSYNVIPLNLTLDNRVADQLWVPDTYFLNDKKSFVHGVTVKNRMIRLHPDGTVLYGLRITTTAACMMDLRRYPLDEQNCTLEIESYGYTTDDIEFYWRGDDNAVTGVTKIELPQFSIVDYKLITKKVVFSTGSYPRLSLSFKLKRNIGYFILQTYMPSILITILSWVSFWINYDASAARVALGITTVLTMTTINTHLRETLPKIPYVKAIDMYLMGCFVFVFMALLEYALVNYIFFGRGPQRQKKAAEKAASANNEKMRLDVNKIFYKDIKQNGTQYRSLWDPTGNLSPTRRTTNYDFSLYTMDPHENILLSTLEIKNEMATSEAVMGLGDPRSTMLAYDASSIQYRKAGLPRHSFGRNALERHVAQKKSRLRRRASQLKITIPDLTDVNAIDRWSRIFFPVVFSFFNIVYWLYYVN

Activity [1]: Active
Activity [2]: Active
Activity [3]: Active
Structure (SMILES): CCOC(=O)CNC(=O)C(OC(=O)CCCN)c1cc(=O)oc2cc(N(CC)CC)ccc12 (stereo not drawn)
